According to patent publication US12077503B2, “Substituted cyclic amides and their use as herbicides” (FMC CORPORATION, priority 2015, dated 2024):

Experiments:
Assay type in all cases: in vivo
[1] = system: giant foxtail (Setaria faberii); assay: Test A preemergence; settings: Setaria faberi, pre-emergence, 240 h; for pest or weed control at 125 g/ha: 125 g ai/ha, Preemergence, visual injury rating after approximately 10 d, read-out: Foxtail, Giant plant response rating (0 to 100 scale, 0 is no effect, 100 is complete control); for pest or weed control at 500 g/ha: 500 g ai/ha, preemergence, visual injury rating about 10 d after treatment, 0 to 100 scale (0 no effect, 100 complete control), read-out: Foxtail, Giant plant response rating
Method in brief: (§1)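 Compounds were formulated in a non-phytotoxic solvent mixture with surfactant and applied as a preemergence directed soil spray after seeding, or sprayed postemergence over plants 2 to 10 cm tall at the one- to two-leaf stage. Evaluation after about 10 d compared treated with untreated controls, using a scale from 0 (no effect) to 100 (complete control).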

[2] = system: Kochia (Kochia scoparia); assay: Test A preemergence; settings: Bassia scoparia, pre-emergence, 240 h; for pest or weed control at 125 g/ha: 125 g ai/ha, Preemergence, visual injury rating after approximately 10 d, read-out: Kochia plant response rating (0 to 100 scale, 0 is no effect, 100 is complete control); for pest or weed control at 500 g/ha: 500 g ai/ha, preemergence, visual injury rating about 10 d after treatment, 0 to 100 scale (0 no effect, 100 complete control), read-out: Kochia plant response rating
Method in brief: as §1

[3] = system: ragweed (common ragweed, Ambrosia elatior); assay: Test A preemergence; settings: Ambrosia artemisiifolia, pre-emergence, 240 h; for pest or weed control at 500 g/ha: 500 g ai/ha, preemergence, visual injury rating about 10 d after treatment, 0 to 100 scale (0 no effect, 100 complete control), read-out: Ragweed plant response rating; for pest or weed control at 125 g/ha: 125 g ai/ha, Preemergence, visual injury rating after approximately 10 d, read-out: Ragweed plant response rating (0 to 100 scale, 0 is no effect, 100 is complete control)
Method in brief: as §1

[4] = system: ryegrass, Italian (Italian ryegrass, Lolium multiflorum); assay: Test A preemergence; settings: Lolium multiflorum, pre-emergence, 240 h; for pest or weed control at 125 g/ha: 125 g ai/ha, Preemergence, visual injury rating after approximately 10 d, read-out: Ryegrass, Italian plant response rating (0 to 100 scale, 0 is no effect, 100 is complete control); for pest or weed control at 500 g/ha: 500 g ai/ha, preemergence, visual injury rating about 10 d after treatment, 0 to 100 scale (0 no effect, 100 complete control), read-out: Ryegrass, Italian plant response rating
Method in brief: as §1

[5] = system: pigweed (Amaranthus retroflexus); assay: Test A preemergence; settings: Amaranthus retroflexus, pre-emergence, 240 h; for pest or weed control at 125 g/ha: 125 g ai/ha, Preemergence, visual injury rating after approximately 10 d, read-out: Pigweed plant response rating (0 to 100 scale, 0 is no effect, 100 is complete control); for pest or weed control at 500 g/ha: 500 g ai/ha, preemergence, visual injury rating about 10 d after treatment, 0 to 100 scale (0 no effect, 100 complete control), read-out: Pigweed plant response rating
[6] = system: barnyardgrass (Echinochloa crus-galli); assay: Test A preemergence; settings: Echinochloa crus-galli, pre-emergence, 240 h; for pest or weed control at 125 g/ha: 125 g ai/ha, Preemergence, visual injury rating after approximately 10 d, read-out: Barnyardgrass plant response rating (0 to 100 scale, 0 is no effect, 100 is complete control); for pest or weed control at 500 g/ha: 500 g ai/ha, preemergence, visual injury rating about 10 d after treatment, 0 to 100 scale (0 no effect, 100 complete control), read-out: Barnyardgrass plant response rating
Method in brief: as §1

[7] = system: wheat (Triticum aestivum); assay: Test A postemergence; settings: Triticum aestivum, post-emergence, 240 h, 125 g ai/ha, Postemergence; visual injury after approximately 10 d; 0 to 100 scale where 0 is no effect and 100 is complete control; read-out: Plant response rating, Wheat
Method in brief: as §1

[8] = system: giant foxtail (Setaria faberii); assay: Test A postemergence; settings: Setaria faberi, post-emergence, 240 h, 125 g ai/ha, Postemergence; visual injury after approximately 10 d; 0 to 100 scale where 0 is no effect and 100 is complete control; read-out: Plant response rating, Foxtail, Giant
Method in brief: as §1

[9] = system: Kochia (Kochia scoparia); assay: Test A postemergence; settings: Bassia scoparia, post-emergence, 240 h, 125 g ai/ha, Postemergence; visual injury after approximately 10 d; 0 to 100 scale where 0 is no effect and 100 is complete control; read-out: Plant response rating, Kochia
Method in brief: as §1

[10] = system: ragweed (common ragweed, Ambrosia elatior); assay: Test A postemergence; settings: Ambrosia artemisiifolia, post-emergence, 240 h, 125 g ai/ha, Postemergence; visual injury after approximately 10 d; 0 to 100 scale where 0 is no effect and 100 is complete control; read-out: Plant response rating, Ragweed
Method in brief: as §1

[11] = system: blackgrass (Alopecurus myosuroides); assay: Test A postemergence; settings: Alopecurus myosuroides, post-emergence, 240 h, 125 g ai/ha, Postemergence; visual injury after approximately 10 d; 0 to 100 scale where 0 is no effect and 100 is complete control; read-out: Plant response rating, Blackgrass
Method in brief: as §1

[12] = system: Galium (catchweed bedstraw, Galium aparine); assay: Test A postemergence; settings: Galium, post-emergence, 240 h, 125 g ai/ha, Postemergence; visual injury after approximately 10 d; 0 to 100 scale where 0 is no effect and 100 is complete control; read-out: Plant response rating, Galium
Method in brief: as §1

[13] = system: ryegrass, Italian (Italian ryegrass, Lolium multiflorum); assay: Test A postemergence; settings: Lolium multiflorum, post-emergence, 240 h, 125 g ai/ha, Postemergence; visual injury after approximately 10 d; 0 to 100 scale where 0 is no effect and 100 is complete control; read-out: Plant response rating, Ryegrass, Italian
Method in brief: as §1

[14] = system: pigweed (Amaranthus retroflexus); assay: Test A postemergence; settings: Amaranthus retroflexus, post-emergence, 240 h, 125 g ai/ha, Postemergence; visual injury after approximately 10 d; 0 to 100 scale where 0 is no effect and 100 is complete control; read-out: Plant response rating, Pigweed
Method in brief: as §1

[15] = system: corn (Zea mays); assay: Test A postemergence; settings: Zea mays, post-emergence, 240 h, 125 g ai/ha, Postemergence; visual injury after approximately 10 d; 0 to 100 scale where 0 is no effect and 100 is complete control
Method in brief: as §1

[16] = system: sedge, umbrella (small-flower umbrella sedge, Cyperus difformis); assay: Test B flooded paddy test; settings: Cyperus difformis, Flood, 250 g ai/ha; scale of 0 to 100 where 0 is no effect and 100 is complete control; read-out: Sedge, Umbrella plant response rating
Method in brief: (§2)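 Plants at 2-leaf stage flooded to 3 cm above soil, with compounds applied directly to paddy water and that depth maintained. Plants kept in greenhouse 13–15 d. Visual rating versus controls on a 0 (no effect) to 100 (complete control) scale.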

[17] = system: rice (Oryra sativa); assay: Test B flooded paddy test; settings: Oryza sativa, Flood, 250 g ai/ha; scale of 0 to 100 where 0 is no effect and 100 is complete control; read-out: Rice plant response rating
Method in brief: as §2

[18] = system: ducksalad (Heteranthera limosa); assay: Test B flooded paddy test; settings: Heteranthera limosa, Flood, 250 g ai/ha; scale of 0 to 100 where 0 is no effect and 100 is complete control; read-out: Ducksalad plant response rating
Method in brief: as §2

[19] = system: barnyardgrass (Echinochloa crus-galli); assay: Test B flooded paddy test; settings: Echinochloa crus-galli, Flood, 250 g ai/ha; scale of 0 to 100 where 0 is no effect and 100 is complete control; read-out: Barnyardgrass plant response rating
Method in brief: as §2

Structure (SMILES) | pest or weed control at 125 g/ha [1] [%] | pest or weed control at 500 g/ha [1] [%] | pest or weed control at 125 g/ha [2] [%] | pest or weed control at 500 g/ha [2] [%] | pest or weed control at 500 g/ha [3] [%] | pest or weed control at 125 g/ha [4] [%] | pest or weed control at 500 g/ha [4] [%] | pest or weed control at 125 g/ha [5] [%] | pest or weed control at 500 g/ha [5] [%] | pest or weed control at 125 g/ha [6] [%] | pest or weed control at 500 g/ha [6] [%] | plant injury at 125 g/ha [7] [%] | pest or weed control at 125 g/ha [8] [%] | pest or weed control at 125 g/ha [9] [%] | pest or weed control at 125 g/ha [10] [%] | pest or weed control at 125 g/ha [11] [%] | pest or weed control at 125 g/ha [12] [%] | pest or weed control at 125 g/ha [13] [%] | pest or weed control at 125 g/ha [14] [%] | Corn plant response rating (crop injury, 0 = no effect, 100 = complete kill) at 125 g/ha [15] [%] | also measured
CSc1ccccc1NC(=O)[C@H]1C(=O)N(C)C[C@@H]1c1cc(F)cc(Cl)c1 [Compound 975] | 90 | 90 | 50 | 90 | 90 | 30 | 40 | 20 | 90 | 90 | 100 | 20 | 90 | 40 | 0 | 50 | 50 | 20 | 30 | 20 | pest or weed control at 250 g/ha [16]: 0%; pest or weed control at 250 g/ha [17]: 0%; pest or weed control at 250 g/ha [18]: 90%; pest or weed control at 250 g/ha [19]: 40%
Cc1c(F)cccc1NC(=O)[C@H]1C(=O)N(C)C[C@@H]1c1cc(F)cc(Cl)c1 [Compound 978] | 90 | 90 | 40 | 90 | 90 | 60 | 90 | 0 | 50 | 90 | 90 | 70 | 90 | 0 | 0 | 60 | 50 | 50 | 0 | 60 | pest or weed control at 125 g/ha [3]: 90%; pest or weed control at 250 g/ha [16]: 0%; pest or weed control at 250 g/ha [17]: 30%; pest or weed control at 250 g/ha [18]: 100%; pest or weed control at 250 g/ha [19]: 65%
COc1cc(OC)cc([C@H]2CN(C)C(=O)[C@@H]2C(=O)Nc2ccccc2SC)c1 [Compound 981] | 90 | 100 | 0 | 90 | 50 | 0 | 60 | 0 | 0 | 90 | 100 | 0 | 70 | 0 | 0 | 0 | 0 | 0 | 0 | 0 | pest or weed control at 125 g/ha [3]: 0%; pest or weed control at 250 g/ha [16]: 0%; pest or weed control at 250 g/ha [17]: 0%; pest or weed control at 250 g/ha [18]: 0%; pest or weed control at 250 g/ha [19]: 0%
